Here are results for 30 compounds from US9216999B2, “Substituted pyrrolo[2,3-h][1,6]naphthyridines and compositions thereof as JAK inhibitors” (priority 2011, dated 2015).

One may read the IC50 as the concentration needed to halve the response being measured. Higher therefore signals a need for much substance.

What all share (assay type): biochemical
One assay has as its target JAK1 (Homo sapiens (Human), UniProt P23458). Kind of assay: Enzyme assay (Assay Example^a 1), JAK1. Particulars: ATP 100 μM.
The next assay concerns the target JAK3 (Homo sapiens (Human), UniProt P52333). Briefly: Enzyme assay (Assay Example^a 1), JAK3.
Another assay addresses Tyk2 (Homo sapiens (Human), UniProt P29597). Briefly: Enzyme assay (Assay Example^a 1), Tyk2. Particulars: ATP 100 μM.
In the next assay the target is JAK2 (Homo sapiens (Human), UniProt O60674). Kind of assay: Enzyme assay (Assay Example^a 1), JAK2.

Read-outs that look alike come from different tables or passages of the source.

Sequence of Tyk2 (P29597 whole entry): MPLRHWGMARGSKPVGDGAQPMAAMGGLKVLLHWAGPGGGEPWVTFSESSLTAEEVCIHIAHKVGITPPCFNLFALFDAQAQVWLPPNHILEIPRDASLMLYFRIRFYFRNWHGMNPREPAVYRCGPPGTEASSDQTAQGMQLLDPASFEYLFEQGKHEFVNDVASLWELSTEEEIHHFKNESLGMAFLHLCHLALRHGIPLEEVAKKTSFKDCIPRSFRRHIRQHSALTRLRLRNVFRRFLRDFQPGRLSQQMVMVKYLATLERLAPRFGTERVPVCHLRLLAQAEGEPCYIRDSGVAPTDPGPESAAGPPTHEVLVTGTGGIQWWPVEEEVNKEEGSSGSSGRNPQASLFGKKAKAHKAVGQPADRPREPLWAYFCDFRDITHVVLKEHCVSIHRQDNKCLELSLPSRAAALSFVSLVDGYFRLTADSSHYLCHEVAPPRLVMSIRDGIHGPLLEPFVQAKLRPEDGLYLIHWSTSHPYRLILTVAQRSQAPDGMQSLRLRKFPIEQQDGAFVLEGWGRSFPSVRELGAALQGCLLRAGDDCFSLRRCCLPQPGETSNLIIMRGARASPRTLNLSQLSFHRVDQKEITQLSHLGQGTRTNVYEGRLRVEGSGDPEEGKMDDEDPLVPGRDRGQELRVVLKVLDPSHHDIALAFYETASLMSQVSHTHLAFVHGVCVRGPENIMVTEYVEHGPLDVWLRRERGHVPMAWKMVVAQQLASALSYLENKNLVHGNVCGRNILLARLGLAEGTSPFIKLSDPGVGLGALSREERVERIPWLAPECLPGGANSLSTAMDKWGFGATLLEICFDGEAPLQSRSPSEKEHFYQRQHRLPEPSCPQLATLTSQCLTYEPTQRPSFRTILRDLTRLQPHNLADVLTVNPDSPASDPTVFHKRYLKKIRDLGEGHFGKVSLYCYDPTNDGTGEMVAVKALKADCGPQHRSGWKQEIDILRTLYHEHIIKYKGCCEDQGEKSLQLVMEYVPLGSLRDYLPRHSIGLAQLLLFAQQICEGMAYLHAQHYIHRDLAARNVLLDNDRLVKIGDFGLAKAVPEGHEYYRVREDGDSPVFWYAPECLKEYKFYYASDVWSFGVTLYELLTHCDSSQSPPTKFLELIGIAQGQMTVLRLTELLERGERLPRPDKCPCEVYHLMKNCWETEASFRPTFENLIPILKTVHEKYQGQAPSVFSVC
Sequence of JAK3 (P52333 whole entry): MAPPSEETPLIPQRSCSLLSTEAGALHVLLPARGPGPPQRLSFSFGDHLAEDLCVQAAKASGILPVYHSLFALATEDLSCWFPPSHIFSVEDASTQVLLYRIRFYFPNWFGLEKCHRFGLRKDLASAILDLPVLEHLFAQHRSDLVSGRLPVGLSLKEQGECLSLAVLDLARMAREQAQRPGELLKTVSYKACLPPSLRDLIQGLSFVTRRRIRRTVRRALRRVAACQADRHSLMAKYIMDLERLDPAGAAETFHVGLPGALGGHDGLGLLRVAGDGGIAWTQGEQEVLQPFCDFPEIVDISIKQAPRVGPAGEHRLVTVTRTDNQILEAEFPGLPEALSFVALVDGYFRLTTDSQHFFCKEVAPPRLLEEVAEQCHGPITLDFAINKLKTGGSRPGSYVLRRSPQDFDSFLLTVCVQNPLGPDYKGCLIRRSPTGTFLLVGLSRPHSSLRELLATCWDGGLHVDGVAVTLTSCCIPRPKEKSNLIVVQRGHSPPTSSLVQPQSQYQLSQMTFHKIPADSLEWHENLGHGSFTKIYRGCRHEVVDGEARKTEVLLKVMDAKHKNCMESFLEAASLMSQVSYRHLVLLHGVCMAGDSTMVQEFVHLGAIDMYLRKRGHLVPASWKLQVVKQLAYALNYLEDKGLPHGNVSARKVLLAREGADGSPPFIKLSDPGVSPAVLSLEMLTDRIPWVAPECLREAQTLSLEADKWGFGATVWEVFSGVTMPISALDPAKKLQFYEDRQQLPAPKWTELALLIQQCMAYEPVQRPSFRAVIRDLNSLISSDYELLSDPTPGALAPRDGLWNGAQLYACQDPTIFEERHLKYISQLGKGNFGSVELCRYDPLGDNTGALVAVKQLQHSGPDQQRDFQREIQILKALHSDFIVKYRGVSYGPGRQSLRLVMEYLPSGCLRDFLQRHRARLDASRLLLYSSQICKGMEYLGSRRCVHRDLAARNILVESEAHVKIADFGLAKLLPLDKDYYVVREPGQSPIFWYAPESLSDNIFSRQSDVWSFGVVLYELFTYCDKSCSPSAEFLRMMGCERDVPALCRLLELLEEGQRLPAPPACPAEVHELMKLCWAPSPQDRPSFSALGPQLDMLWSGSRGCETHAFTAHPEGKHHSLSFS

On to `OCCN(Cc1ccccc1)C[C@H]1CC[C@H](c2nnn3cnc4[nH]ccc4c23)CC1` [compound 268, 2-({[trans-4-(7H-pyrrolo[3,2-e][1,2,3]triazolo[1,5-c]pyrimidin-1-yl)cyclohexyl]methyl}(benzyl)amino)ethanol], for which the IC50 was found to be 0.0044 µM against JAK1, 0.72 µM against JAK3 (ATP 100 μM) and 0.12 µM at Tyk2.

`CN(C)S(=O)(=O)c1ccc2c(c1)CCN2C[C@H]1CC[C@H](c2nnn3cnc4[nH]ccc4c23)CC1` [compound 190, 1-{[trans-4-(7H-pyrrolo[3,2-e][1,2,3]triazolo[1,5-c]pyrimidin-1-yl)cyclohexyl]methyl}-N,N-dimethylindoline-5-sulfonamide]: the IC50 was 0.022 µM against JAK1 (Table^a 154); greater than 1 µM against JAK3 (ATP 100 μM, Table^a 154); 0.61 µM against Tyk2 (Table^a 154).

Turning to `N#C/C(=C\N1CCC(c2nnn3cnc4[nH]ccc4c23)CC1)c1ccc(Cl)cc1` [compound 235, (Z)-3-[4-(7H-pyrrolo[3,2-e][1,2,3]triazolo[1,5-c]pyrimidin-1-yl)piperidin-1-yl]-2-(4-chlorophenyl)acrylonitrile], the IC50 is 0.056 µM against JAK1, greater than 1 µM on JAK3 (ATP 100 μM) and greater than 1 µM at Tyk2.

`N#Cc1ccc(CNC(=O)[C@H]2CC[C@H](c3nnn4cnc5[nH]ccc5c34)CC2)cc1` [compound 350, trans-N-(4-cyanobenzyl)-4-(7H-pyrrolo[3,2-e][1,2,3]triazolo[1,5-c]pyrimidin-1-yl)cyclohexanecarboxamide]: the figures for the half-inhibitory concentration (IC50) on JAK1, against JAK3 (ATP 100 μM) and against Tyk2 were 0.008 µM, greater than 1 µM and 0.54 µM, respectively.

Regarding `c1cc2c(ncn3nnc(C4CCCNC4)c23)[nH]1` (racemic) [compound 15], the IC50 against JAK2 (ATP 100 μM, Table^a 154) is 2.5 µM; on Tyk2 (Table^a 154), greater than 1 µM.

`Fc1ccc(C2(NC[C@H]3CC[C@H](c4nnn5cnc6[nH]ccc6c45)CC3)COC2)cc1` [compound 322, N-{[trans-4-(7H-pyrrolo[3,2-e][1,2,3]triazolo[1,5-c]pyrimidin-1-yl)cyclohexyl]methyl}-3-(4-fluorophenyl)oxetan-3-amine]: the IC50 against JAK1 worked out at 0.0013 µM; against JAK3 (ATP 100 μM) it was 0.2 µM; on Tyk2, 0.43 µM.

Take `COCCN(C)C[C@H]1CC[C@H](c2nnn3cnc4[nH]ccc4c23)CC1` [compound 325, N-{[trans-4-(7H-pyrrolo[3,2-e][1,2,3]triazolo[1,5-c]pyrimidin-1-yl)cyclohexyl]methyl}-2-methoxy-N-methylethanamine]: the IC50 on JAK1 is 0.011 µM; against JAK3 (ATP 100 μM), greater than 1 µM; at Tyk2 it was 0.88 µM.

Regarding `N#CCC[C@H]1CC[C@H](c2nnn3cnc4[nH]ccc4c23)CC1` [compound 441, 3-[trans-4-(7H-Pyrrolo[3,2-e][1,2,3]triazolo[1,5-c]pyrimidin-1-yl)cyclohexyl]propanenitrile], the 50% inhibitory concentration (IC50) against JAK1 was found to be 0.0016 µM; at JAK3 (ATP 100 μM), 0.12 µM; at Tyk2, 0.024 µM.

On to `FC(F)(F)CN(CC1CC1)[C@H]1CC[C@H](c2nnn3cnc4[nH]ccc4c23)CC1` [compound 413, trans-N-(Cyclopropylmethyl)-4-(7H-pyrrolo[3,2-e][1,2,3]triazolo[1,5-c]pyrimidin-1-yl)-N-(2,2,2-trifluoroethyl)cyclohexanamine], for which the figures for the half-inhibitory concentration (IC50) against JAK1, on JAK3 (ATP 100 μM) and against Tyk2 were 0.02 µM, greater than 1 µM and 0.62 µM, respectively.

Regarding `FC1(F)CCN(C[C@H]2CC[C@H](c3nnn4cnc5[nH]ccc5c34)CC2)C1` [compound 328, 1-{trans-4-[(3,3-difluoropyrrolidin-1-yl)methyl]cyclohexyl}-7H-pyrrolo[3,2-e][1,2,3]triazolo[1,5-c]pyrimidine], the IC50 amounted to 0.0073 µM against JAK1, 0.53 µM against JAK3 (ATP 100 μM) and 0.9 µM against Tyk2.

`O=S(=O)(C[C@H]1CC[C@H](c2nnn3cnc4[nH]ccc4c23)CC1)c1ccc(F)cc1` [compound 365, 1-(trans-4-{[(4-fluorophenyl)sulfonyl]methyl}cyclohexyl)-7H-pyrrolo[3,2-e][1,2,3]triazolo[1,5-c]pyrimidine]: the IC50 on JAK1 was determined as 0.0054 µM; against JAK3 (ATP 100 μM), 0.74 µM; at Tyk2 it was 0.34 µM.

Regarding `FC(F)(F)C(N[C@H]1CC[C@H](c2nnn3cnc4[nH]ccc4c23)CC1)C(F)(F)F` [400b, trans-N-(1,1,1,3,3,3-hexafluoropropan-2-yl)-4-(7H-pyrrolo[3,2-e][1,2,3]triazolo[1,5-c]pyrimidin-1-yl)cyclohexanamine], the IC50 was 0.042 µM at JAK1, greater than 1 µM at JAK3 (ATP 100 μM) and 0.84 µM on Tyk2.

With `Cc1nc(C2CCCCC2)c2c3cc[nH]c3ncn12` [compound 1], the results for the IC50 on JAK1, against JAK3 and on Tyk2 were 0.23 µM, 1.4 µM and 0.59 µM, respectively.

Turning to `O=C(NCC(F)(F)F)[C@H]1CC[C@H](c2nnn3cnc4[nH]ccc4c23)CC1` [compound 354, trans-4-(7H-pyrrolo[3,2-e][1,2,3]triazolo[1,5-c]pyrimidin-1-yl)-N-(2,2,2-trifluoroethyl)cyclohexanecarboxamide], the values for the IC50 on JAK1, against JAK3 (ATP 100 μM) and against Tyk2 were 0.0018 µM, 0.69 µM and 0.16 µM, respectively.

Regarding `c1cc2c(ncn3nnc(C4CCNCC4)c23)[nH]1` [compound 27], the IC50 against JAK2 is greater than 1 µM.

On to `OC1(CNC[C@H]2CC[C@H](c3nnn4cnc5[nH]ccc5c34)CC2)CCCCC1` [compound 313, 1-[({[trans-4-(7H-pyrrolo[3,2-e][1,2,3]triazolo[1,5-c]pyrimidin-1-yl)cyclohexyl]methyl)amino)methyl]cyclohexanol], for which the results for the IC50 against JAK1, at JAK3 (ATP 100 μM) and against Tyk2 were 0.0084 µM, greater than 1 µM and 0.51 µM, respectively.

Take `OC(CN1CCC(c2nnn3cnc4[nH]ccc4c23)CC1)c1ccc(C(F)(F)F)cc1` (racemic) [compound 212, 2-[4-(7H-Pyrrolo[3,2-e][1,2,3]triazolo[1,5-c]pyrimidin-1-yl)piperidin-1-yl]-1-[4-(trifluoromethyl)phenyl]ethanol]: the half-inhibitory concentration (IC50) at JAK2 (ATP 100 μM, Table^a 154) amounted to 0.047 µM; against Tyk2 (Table^a 154), 0.45 µM.

Consider `FC(F)(F)CNC[C@H]1CC[C@H](c2nnn3cnc4[nH]ccc4c23)CC1` [compound 188, N-{[trans-4-(7H-pyrrolo[3,2-e][1,2,3]triazolo[1,5-c]pyrimidin-1-yl)cyclohexyl]methyl}-2,2,2-trifluoroethanamine], for which the IC50 at JAK1 (Table^a 154) was 0.0012 µM; against JAK3 (ATP 100 μM, Table^a 154) it was 0.11 µM; against Tyk2 (Table^a 154), 0.063 µM.

In the case of `FC(F)(F)c1ccc(CN2CCC(c3nnn4cnc5[nH]ccc5c34)CC2)cc1` [compound 33], at JAK2, it took 0.019 µM to reach half-maximal inhibition (IC50).

On JAK2, `CC(C)(C)OC(=O)N1CCC(c2nnn3cnc4[nH]ccc4c23)CC1` [compound 24] showed an IC50 of 0.51 µM.

Consider `Cc1cc(OC(F)(F)F)ccc1NC1CCC(c2nnn3cnc4[nH]ccc4c23)CC1` (centres unmarked) [compound 133], for which the IC50 against JAK1 (Table^a 154) is 0.12 µM; against JAK3, greater than 1 µM; on Tyk2 (Table^a 154), greater than 1 µM.

At JAK2 (ATP 100 μM, Table^a 154), `CC1CCN(C(=O)OC(C)(C)C)CC1c1nnn2cnc3[nH]ccc3c12` (centres unmarked) [compound 11] showed a half-inhibitory concentration (IC50) of 0.34 µM.

Turning to `Clc1ccc(CN[C@H]2CC[C@H](c3nnn4cnc5[nH]ccc5c34)CC2)cc1` [197b, trans-N-(4-chlorobenzyl)-4-(7H-pyrrolo[3,2-e][1,2,3]triazolo[1,5-c]pyrimidin-1-yl)cyclohexanamine], the IC50 was 0.0054 µM at JAK1 (Table^a 154); 0.52 µM against JAK3 (ATP 100 μM, Table^a 154); 0.11 µM on Tyk2 (Table^a 154).

Consider `CC1(C)CC1NC[C@H]1CC[C@H](c2nnn3cnc4[nH]ccc4c23)CC1` (stereo partly drawn) [compound 290, N-{[trans-4-(7H-pyrrolo[3,2-e][1,2,3]triazolo[1,5-c]pyrimidin-1-yl)cyclohexyl]methyl}-2,2-dimethylcyclopropanamine], for which the IC50 against JAK1 was determined as 0.0076 µM; against JAK3 (ATP 100 μM), 0.5 µM; at Tyk2, 0.27 µM.

On to `O=C(NCC(O)(c1ccc(F)cc1)C(F)(F)F)[C@H]1CC[C@H](c2nnn3cnc4[nH]ccc4c23)CC1` (stereo partly drawn) [compound 347, trans-4-(7H-Pyrrolo[3,2-e][1,2,3]triazolo[1,5-c]pyrimidin-1-yl)-N-[3,3,3-trifluoro-2-(4-fluorophenyl)-2-hydroxypropyl]cyclohexanecarboxamide], for which the half-inhibitory concentration (IC50) against JAK1 is 0.0069 µM; against JAK3 (ATP 100 μM) it was 0.65 µM; against Tyk2 it was greater than 1 µM.

As to `N#Cc1cc(CN2CCC(c3nnn4cnc5[nH]ccc5c34)CC2)ccc1F` [compound 223, 5-{[4-(7H-pyrrolo[3,2-e][1,2,3]triazolo[1,5-c]pyrimidin-1-yl)piperidin-1-yl]methyl}-2-fluorobenzonitrile], the IC50 against JAK1 is 0.015 µM; against JAK3 (ATP 100 μM), 0.94 µM; against Tyk2 it was greater than 1 µM.

In the case of `COc1ccc(CN2CCC(c3nnn4cnc5[nH]ccc5c34)CC2)cn1` [compound 170, 1-{1-[(6-methoxypyridin-3-yl)methyl]piperidin-4-yl}-7H-pyrrolo[3,2-e][1,2,3]triazolo[1,5-c]pyrimidine], the IC50 against JAK1 (Table^a 154) was 0.021 µM; against JAK3 (ATP 100 μM, Table^a 154) it was 0.52 µM; against Tyk2 (Table^a 154) it was greater than 1 µM.

`NC(=O)c1ccc(CN2CCC(c3nnn4cnc5[nH]ccc5c34)CC2)cc1` [compound 241, 4-{[4-(7H-pyrrolo[3,2-e][1,2,3]triazolo[1,5-c]pyrimidin-1-yl)piperidin-1-yl]methyl}benzamide]: the figures for the IC50 at JAK1, against JAK3 (ATP 100 μM) and at Tyk2 were 0.046 µM, greater than 1 µM and greater than 1 µM, respectively.

With `Clc1ccc(CN[C@H]2CC[C@@H](c3nnn4cnc5[nH]ccc5c34)CC2)cc1` [197a, cis-N-(4-chlorobenzyl)-4-(7H-pyrrolo[3,2-e][1,2,3]triazolo[1,5-c]pyrimidin-1-yl)cyclohexanamine], the IC50 against JAK1 (Table^a 154) is 0.016 µM; at JAK3 (ATP 100 μM, Table^a 154), greater than 1 µM; on Tyk2 (Table^a 154), 0.15 µM.

Consider `N#Cc1ccc(CCN2CCC(c3nnn4cnc5[nH]ccc5c34)CC2)cc1` [compound 375, 4-{2-[4-(7H-Pyrrolo[3,2-e][1,2,3]triazolo[1,5-c]pyrimidin-1-yl)piperidin-1-yl]ethyl}benzonitrile], for which the figures for the concentration for half-maximal inhibition (IC50) at JAK1, against JAK3 (ATP 100 μM) and at Tyk2 were 0.047 µM, greater than 1 µM and greater than 1 µM, respectively.
